ChEMBL document CHEMBL1201862, “PubChem BioAssay data set” (2004)
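These data come from cells grown in 96-well plates and exposed to compound for 48 hours at five concentrations. Abbreviation: GI50, concentration required for 50% inhibition of growth.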 The source made the active and inactive calls. Cut-off read from the data, not from the text of the source: active = GI50 up to about 1.1 µM and inactive = higher. Positions of bridges follow the written chain, without caps; N, C: chain ends. Non-standard residues stand in square brackets, D forms with d. Residues, ends and D or L forms follow the SMILES beside them. *: point of attachment. PhAc = O=C(Cc1ccccc1)*

How the values were obtained:
Test in all cases: NCI anticancer screen, dose series, 48 h
ACHN = tested on: ACHN
BT-549 = tested on: BT-549
HL-60 = tested on: HL-60
HT-29 = tested on: HT-29
LOX IMVI = tested on: LOX IMVI
M14 = tested on: M14
MCF7 = tested on: MCF7
MDA-N = tested on: MDA-N
MOLT-4 = tested on: MOLT-4
NCI/ADR-RES = tested on: NCI/ADR-RES
PC-3 = tested on: PC-3
SF-268 = tested on: SF-268
SK-MEL-2 = tested on: SK-MEL-2
TK-10 = tested on: TK-10
U-251 = tested on: U-251
UO-31 = tested on: UO-31
HCT-15 = tested on: HCT-15
SR = tested on: SR
HCC 2998 = tested on: HCC 2998

| Structure (SMILES) | GI50 (ACHN) | GI50 (BT-549) | GI50 (HL-60) | GI50 (HT-29) | GI50 (LOX IMVI) | GI50 (M14) | GI50 (MCF7) | GI50 (MDA-N) | GI50 (MOLT-4) | GI50 (NCI/ADR-RES) | GI50 (PC-3) | GI50 (SF-268) | GI50 (SK-MEL-2) | GI50 (TK-10) | GI50 (U-251) | GI50 (UO-31) | GI50 (HCT-15) [µM] | GI50 (SR) | GI50 (HCC 2998) |
| --- | --- | --- | --- | --- | --- | --- | --- | --- | --- | --- | --- | --- | --- | --- | --- | --- | --- | --- | --- |
| CC1C2(C)OC(=N)C(C#N)(C(c3cccc([N+](=O)[O-])c3)O2)C1(C#N)C#N (stereo not given) | 34 µM (inactive) | 31 µM (inactive) | 13.8 µM (inactive) | 26.4 µM (inactive) | 16.9 µM (inactive) | 19.1 µM (inactive) | 22.5 µM (inactive) | 16.5 µM (inactive) | 36.3 µM (inactive) | 64.9 µM (inactive) | 30.9 µM (inactive) | 33 µM (inactive) | 19.9 µM (inactive) | 42.1 µM (inactive) | 21.9 µM (inactive) | 35.6 µM (inactive) | – | – | – |
| O=C(CSCC(=O)N/N=C\c1ccc(-c2ccccc2)cc1)N/N=C\c1ccc(-c2ccccc2)cc1 | 23.9 µM (inactive) | 20.8 µM (inactive) | – | 23 µM (inactive) | 16.3 µM (inactive) | 23.8 µM (inactive) | 36.1 µM (inactive) | – | 25.3 µM (inactive) | 56.4 µM (inactive) | 30.4 µM (inactive) | 15.8 µM (inactive) | 16 µM (inactive) | 26 µM (inactive) | 17.7 µM (inactive) | 28.5 µM (inactive) | 26.1 | 6.58 µM (inactive) | – |
| CCCC(=O)OC[n+]1ccc(-c2c(COC(=O)NC(C)C)c(COC(=O)NC(C)C)c3n2CCC3)cc1 | 15.4 µM (inactive) | > 100 µM (inactive) | 33.3 µM (inactive) | > 100 µM (inactive) | > 100 µM (inactive) | > 100 µM (inactive) | 80.7 µM (inactive) | – | 41.5 µM (inactive) | > 100 µM (inactive) | 92.7 µM (inactive) | 65.8 µM (inactive) | > 100 µM (inactive) | > 100 µM (inactive) | > 100 µM (inactive) | > 100 µM (inactive) | > 100 | 4.99 µM (inactive) | > 100 µM (inactive) |
| C=C1c2c(n(S(=O)(=O)c3ccccc3)c3ccccc23)[C@@]2(C(=O)OC)CC3C=CC2N1C3 | > 100 µM (inactive) | > 100 µM (inactive) | 8.09 µM (inactive) | > 100 µM (inactive) | > 100 µM (inactive) | > 100 µM (inactive) | > 100 µM (inactive) | > 100 µM (inactive) | > 100 µM (inactive) | > 100 µM (inactive) | > 100 µM (inactive) | > 100 µM (inactive) | > 100 µM (inactive) | > 100 µM (inactive) | > 100 µM (inactive) | – | > 100 | – | > 100 µM (inactive) |
| CN(/N=C\c1ccnc2ccccc12)c1ccc([N+](=O)[O-])cc1 | > 100 µM (inactive) | – | 37.1 µM (inactive) | > 100 µM (inactive) | 8.2 µM (inactive) | 97.1 µM (inactive) | – | – | > 100 µM (inactive) | – | – | 9.51 µM (inactive) | > 100 µM (inactive) | > 100 µM (inactive) | 8.77 µM (inactive) | – | > 100 | – | > 100 µM (inactive) |
| COc1ccccc1N=C(S)Nc1ccccn1 | – | > 100 µM (inactive) | > 100 µM (inactive) | > 100 µM (inactive) | > 100 µM (inactive) | > 100 µM (inactive) | > 100 µM (inactive) | – | > 100 µM (inactive) | > 100 µM (inactive) | > 100 µM (inactive) | 45.6 µM (inactive) | > 100 µM (inactive) | 64.1 µM (inactive) | 58.5 µM (inactive) | > 100 µM (inactive) | > 100 | > 100 µM (inactive) | – |
| CC1=C(C)Cc2c(O)ccc(O)c2C1 | 17.4 µM (inactive) | – | 5.36 µM (inactive) | 14.1 µM (inactive) | 19.9 µM (inactive) | 16.2 µM (inactive) | 19.2 µM (inactive) | 17 µM (inactive) | 19.3 µM (inactive) | 36.5 µM (inactive) | 15.2 µM (inactive) | 15.5 µM (inactive) | – | 20.7 µM (inactive) | 16.6 µM (inactive) | 16.9 µM (inactive) | 17.5 | 12.6 µM (inactive) | – |
| O=C1Nc2ccccc2/C1=N/NC(=S)Nc1cccc(Cl)c1 | 6.34 µM (inactive) | – | 8.87 µM (inactive) | 10.1 µM (inactive) | 5.37 µM (inactive) | 10.4 µM (inactive) | 8.43 µM (inactive) | 27.9 µM (inactive) | 0.614 µM (active) | 2.37 µM (inactive) | 8.02 µM (inactive) | 4.53 µM (inactive) | 22 µM (inactive) | 31.4 µM (inactive) | 10.8 µM (inactive) | 19.5 µM (inactive) | 7.64 | 1.73 µM (inactive) | 66.4 µM (inactive) |
| O=C(Cc1ccccc1)N[C@@H]1COC(=O)[C@@H]2CCCN2C(=O)[C@@H]2CCCN2C1=O (PhAc-[dS]-Pro-Pro; ester 1-C) | > 100 µM (inactive) | – | > 100 µM (inactive) | > 100 µM (inactive) | > 100 µM (inactive) | > 100 µM (inactive) | > 100 µM (inactive) | > 100 µM (inactive) | > 100 µM (inactive) | > 100 µM (inactive) | > 100 µM (inactive) | > 100 µM (inactive) | > 100 µM (inactive) | > 100 µM (inactive) | – | – | > 100 | > 100 µM (inactive) | > 100 µM (inactive) |
